Data: US4684664A, “Derivatives of β-(4-isocyano-1,2,3,4-diepoxycyclopentyl) acrylic acid” (Kureha Kagaku Kogyo Kabushiki Kaisha, priority 1984, dated 1987)
In brackets after ≈: the same amount, converted by molar mass.

Experiments:
Assay type in all cases: cell-based
[1] = tested on: Staphylococcus aureus FDA 209PJc-1; experiment: Antibacterial activity, agar-dilution MIC, organism No. 1; conditions: Staphylococcus aureus, FDA209PJC1; Organism No. 1, bouillon-agar; read-out: Minimum Inhibitory Concentration
Source text: (§1) Agar-dilution method was used for determination of the antibacterial activity and antifungal activity while using bouillon-agar culture medium, and the minimum inhibitory concentration of the specimen was expressed by μg/ml of the culture medium.

[2] = tested on: Staphylococcus aureus Terajima; experiment: Antibacterial activity, agar-dilution MIC, organism No. 2; conditions: Staphylococcus aureus; Organism No. 2, bouillon-agar; read-out: Minimum Inhibitory Concentration
Source text: as §1

[3] = tested on: Staphylococcus aureus MS 353; experiment: Antibacterial activity, agar-dilution MIC, organism No. 3; conditions: Staphylococcus aureus, MS353; Organism No. 3, bouillon-agar; read-out: Minimum Inhibitory Concentration
Source text: as §1

[4] = tested on: Streptococcus pyogenes Cook; experiment: Antibacterial activity, agar-dilution MIC, organism No. 4; conditions: Streptococcus pyogenes; Organism No. 4, bouillon-agar; read-out: Minimum Inhibitory Concentration
Source text: as §1

[5] = tested on: Escherichia coli NIHJ-JC-2; experiment: Antibacterial activity, agar-dilution MIC, organism No. 5; conditions: Escherichia coli, NIHJJC2; Organism No. 5, bouillon-agar; read-out: Minimum Inhibitory Concentration
Source text: as §1

[6] = tested on: Escherichia coli K12 C600 IAM 1264; experiment: Antibacterial activity, agar-dilution MIC, organism No. 6; conditions: Escherichia coli, IAM1264; Organism No. 6, bouillon-agar; read-out: Minimum Inhibitory Concentration
Source text: as §1

[7] = tested on: Klebsiella pneumoniae PCI-602; experiment: Antibacterial activity, agar-dilution MIC, organism No. 7; conditions: Klebsiella pneumoniae, PCI602; Organism No. 7, bouillon-agar; read-out: Minimum Inhibitory Concentration
Source text: as §1

[8] = tested on: Salmonella typhimurium IID 971; experiment: Antibacterial activity, agar-dilution MIC, organism No. 8; conditions: Salmonella enterica; Organism No. 8, bouillon-agar; read-out: Minimum Inhibitory Concentration
Source text: as §1

Salmonella typhi 901 = experiment: Antibacterial activity, agar-dilution MIC, organism No. 9; conditions: Salmonella enterica, TYPHI, read-out: Minimum Inhibitory Concentration
Source text: as §1

[9] = tested on: Salmonella paratyphi-A 1015; experiment: Antibacterial activity, agar-dilution MIC, organism No. 10; conditions: Salmonella enterica, PARATYPHI, read-out: Minimum Inhibitory Concentration
Source text: as §1

[10] = tested on: Salmonella shottmuelleri 8006; experiment: Antibacterial activity, agar-dilution MIC, organism No. 11; conditions: Salmonella, 8006; Organism No. 11, bouillon-agar; read-out: Minimum Inhibitory Concentration
Source text: as §1

[11] = tested on: Salmonella enteritidis G 14; experiment: Antibacterial activity, agar-dilution MIC, organism No. 12; conditions: Salmonella enterica, ENTERITIDIS; Organism No. 12, bouillon-agar; read-out: Minimum Inhibitory Concentration
Source text: as §1

[12] = tested on: Bacillus subtilis ATCC 6633; experiment: Antibacterial activity, agar-dilution MIC, organism No. 14; conditions: Bacillus subtilis, ATCC6633; Organism No. 14, bouillon-agar; read-out: Minimum Inhibitory Concentration
Source text: as §1

[13] = tested on: Pseudomonas aeruginosa IFO 3445; experiment: Antibacterial activity, agar-dilution MIC, organism No. 15; conditions: Pseudomonas aeruginosa, IFO3445; Organism No. 15, bouillon-agar; read-out: Minimum Inhibitory Concentration
Source text: as §1

[14] = tested on: Pseudomonas aeruginosa NCTC 10490; experiment: Antibacterial activity, agar-dilution MIC, organism No. 16; conditions: Pseudomonas aeruginosa, NCTC10490; Organism No. 16, bouillon-agar; read-out: Minimum Inhibitory Concentration
Source text: as §1

[15] = tested on: Pseudomonas aeruginosa PAO 1; experiment: Antibacterial activity, agar-dilution MIC, organism No. 17; conditions: Pseudomonas aeruginosa, PAO1; Organism No. 17, bouillon-agar; read-out: Minimum Inhibitory Concentration
Source text: as §1

[16] = tested on: Proteus morganii IFO 3848; experiment: Antibacterial activity, agar-dilution MIC, organism No. 18; conditions: Morganella morganii, IFO3848; Organism No. 18, bouillon-agar; read-out: Minimum Inhibitory Concentration
Source text: as §1

[17] = tested on: Proteus mirabilis IFO 3849; experiment: Antibacterial activity, agar-dilution MIC, organism No. 19; conditions: Proteus mirabilis, IFO3849; Organism No. 19, bouillon-agar; read-out: Minimum Inhibitory Concentration
Source text: as §1

Proteus vulgaris OX-19 = experiment: Antibacterial activity, agar-dilution MIC, organism No. 20; conditions: Proteus vulgaris, OX19; Organism No. 20, bouillon-agar; read-out: Minimum Inhibitory Concentration
Source text: as §1

Proteus vulgaris HX-19 = experiment: Antibacterial activity, agar-dilution MIC, organism No. 21; conditions: Proteus vulgaris, HX19; Organism No. 21, bouillon-agar; read-out: Minimum Inhibitory Concentration
Source text: as §1

[18] = tested on: Proteus rettgeri IFO 3850; experiment: Antibacterial activity, agar-dilution MIC, organism No. 22; conditions: Providencia rettgeri, IFO3850; Organism No. 22, bouillon-agar; read-out: Minimum Inhibitory Concentration
Source text: as §1

[19] = tested on: Enterobacter aerogenes ATCC 13048; experiment: Antibacterial activity, agar-dilution MIC, organism No. 23; conditions: Klebsiella aerogenes, ATCC13048; Organism No. 23, bouillon-agar; read-out: Minimum Inhibitory Concentration
Source text: as §1

Enterobacter cloacae 963 = experiment: Antibacterial activity, agar-dilution MIC, organism No. 24; conditions: Enterobacter cloacae, 963; Organism No. 24, bouillon-agar; read-out: Minimum Inhibitory Concentration
Source text: as §1

[20] = tested on: Micrococcus luteus ATCC 9341; experiment: Antibacterial activity, agar-dilution MIC, organism No. 25; conditions: Micrococcus luteus, ATCC9341; Organism No. 25, bouillon-agar; read-out: Minimum Inhibitory Concentration
Source text: as §1

[21] = tested on: Streptococcus pyogenes IFO 3340; experiment: Antibacterial activity, agar-dilution MIC, organism No. 26; conditions: Streptococcus pyogenes, IFO3340; Organism No. 26, bouillon-agar; read-out: Minimum Inhibitory Concentration
Source text: as §1

[22] = tested on: Streptococcus faecium IFO 3826; experiment: Antibacterial activity, agar-dilution MIC, organism No. 27; conditions: Enterococcus faecium, IFO3826; Organism No. 27, bouillon-agar; read-out: Minimum Inhibitory Concentration
Source text: as §1

[23] = tested on: Mycoplasma pneumoniae IID817; experiment: Antimycoplasmal activity, MIC by phenol red colour change, organism No. 28; conditions: Mycoplasma, IID817; Organism No. 28, PPLO broth + 1% glucose, 37° C.; read-out: Minimum Inhibitory Concentration (MIC)
Procedure: Mycoplasma pneumoniae IID817 was used as the test microorganism in a culture medium prepared by adding 1% of glucose to "PPLO broth (manufactured by Difco Co.) liquid culture medium" at 37° C. with phenol red as an indicator, thereby culturing the test microorganism.

[24] = tested on: Candida albicans IAM 4905; experiment: Antifungal activity, agar-dilution MIC, organism No. 29; conditions: Candida albicans, IAM4905; Organism No. 29, bouillon-agar; read-out: Minimum Inhibitory Concentration
Source text: as §1

[25] = tested on: Aspergillus niger IFO 6342; experiment: Antifungal activity, agar-dilution MIC, organism No. 30; conditions: Aspergillus niger, IFO6342; Organism No. 30, bouillon-agar; read-out: Minimum Inhibitory Concentration
Source text: as §1

Structure (SMILES) | MIC [1] [µg/mL] | MIC [2] [µg/mL] | MIC [3] [µg/mL] | MIC [4] [µg/mL] | MIC [5] [µg/mL] | MIC [6] [µg/mL] | MIC [7] [µg/mL] | MIC [8] [µg/mL] | MIC (Salmonella typhi 901) [µg/mL] | MIC [9] [µg/mL] | MIC [10] [µg/mL] | MIC [11] [µg/mL] | MIC [12] [µg/mL] | MIC [13] [µg/mL] | MIC [14] [µg/mL] | MIC [15] [µg/mL] | MIC [16] [µg/mL] | MIC [17] [µg/mL] | MIC (Proteus vulgaris OX-19) [µg/mL] | MIC (Proteus vulgaris HX-19) [µg/mL] | further results
[C-]#[N+]C12CC3(/C=C/C(=O)N(C(=O)NC4CCCCC4)C4CCCCC4)OC3C1O2 (stereo not shown) [Compound No. 25] | 0.1 (≈ 0.25 µM) | 0.78 (≈ 1.95 µM) | 0.78 (≈ 1.95 µM) | 1.56 (≈ 3.9 µM) | 12.5 (≈ 31.3 µM) | 6.25 (≈ 15.6 µM) | 100 (≈ 250 µM) | 100 (≈ 250 µM) | 100 (≈ 250 µM) | 0.1 (≈ 0.25 µM) | 0.1 (≈ 0.25 µM) | 100 (≈ 250 µM) | 0.39 (≈ 0.976 µM) | > 100 | > 100 | > 100 | > 100 | > 200 | 25 (≈ 62.6 µM) | 0.1 (≈ 0.25 µM) | MIC [18]: > 200 µg/mL; MIC [19]: > 100 µg/mL; MIC (Enterobacter cloacae 963): 50 µg/mL (≈ 125 µM); MIC [20]: < 0.05 µg/mL; MIC [21]: 6.25 µg/mL (≈ 15.6 µM); MIC [22]: 6.25 µg/mL (≈ 15.6 µM); MIC [23]: 1.56 µg/mL; MIC [24]: 3.13 µg/mL (≈ 7.83 µM); MIC [25]: 6.25 µg/mL (≈ 15.6 µM)
[C-]#[N+]C12CC3(/C=C/C(=O)N[C@@H](CCC(=O)OC)C(=O)OC)OC3C1O2 (stereo partly shown) [Compound No. 26] | 25 (≈ 71.4 µM) | 100 (≈ 285 µM) | 25 (≈ 71.4 µM) | 50 (≈ 143 µM) | 100 (≈ 285 µM) | 100 (≈ 285 µM) | 50 (≈ 143 µM) | 100 (≈ 285 µM) | 50 (≈ 143 µM) | 50 (≈ 143 µM) | 50 (≈ 143 µM) | 50 (≈ 143 µM) | 100 (≈ 285 µM) | > 200 | > 200 | > 200 | 100 (≈ 285 µM) | > 200 | 25 (≈ 71.4 µM) | 12.5 (≈ 35.7 µM) | MIC [18]: > 200 µg/mL; MIC [19]: > 200 µg/mL; MIC (Enterobacter cloacae 963): > 200 µg/mL; MIC [20]: 12.5 µg/mL (≈ 35.7 µM); MIC [21]: 50 µg/mL (≈ 143 µM); MIC [22]: > 200 µg/mL; MIC [23]: 1.56 µg/mL; MIC [24]: 100 µg/mL (≈ 285 µM); MIC [25]: 100 µg/mL (≈ 285 µM)
[C-]#[N+]C12CC3(/C=C/C(=O)N[C@@H](CC(=O)OC)C(=O)OC)OC3C1O2 (stereo partly shown) [Compound No. 27] | 25 (≈ 74.3 µM) | 100 (≈ 297 µM) | 25 (≈ 74.3 µM) | 50 (≈ 149 µM) | 100 (≈ 297 µM) | 50 (≈ 149 µM) | 25 (≈ 74.3 µM) | 100 (≈ 297 µM) | 25 (≈ 74.3 µM) | 25 (≈ 74.3 µM) | 25 (≈ 74.3 µM) | 25 (≈ 74.3 µM) | 100 (≈ 297 µM) | > 200 | > 200 | > 200 | 25 (≈ 74.3 µM) | > 200 | 25 (≈ 74.3 µM) | 12.5 (≈ 37.2 µM) | MIC [18]: > 200 µg/mL; MIC [19]: > 200 µg/mL; MIC (Enterobacter cloacae 963): > 200 µg/mL; MIC [20]: 12.5 µg/mL (≈ 37.2 µM); MIC [21]: 50 µg/mL (≈ 149 µM); MIC [22]: > 200 µg/mL; MIC [23]: > 100 µg/mL; MIC [24]: 100 µg/mL (≈ 297 µM); MIC [25]: > 100 µg/mL
[C-]#[N+]C12CC3(/C=C/C(=O)N[C@@H](CCC(=O)OCc4ccccc4)C(=O)OCc4ccccc4)OC3C1O2 (stereo partly shown) [Compound No. 28] | 12.5 (≈ 24.9 µM) | 12.5 (≈ 24.9 µM) | 12.5 (≈ 24.9 µM) | > 200 | > 200 | > 200 | > 200 | > 200 | > 200 | > 200 | > 200 | > 200 | < 1.56 | > 200 | > 200 | > 200 | > 200 | > 200 | > 200 | 25 (≈ 49.7 µM) | MIC [18]: > 200 µg/mL; MIC [19]: > 200 µg/mL; MIC (Enterobacter cloacae 963): > 200 µg/mL; MIC [20]: < 1.56 µg/mL; MIC [21]: > 200 µg/mL; MIC [22]: 0.5 µg/mL (≈ 0.995 µM); MIC [23]: > 100 µg/mL; MIC [24]: > 100 µg/mL; MIC [25]: > 100 µg/mL
[C-]#[N+]C12CC3(/C=C/C(=O)N[C@@H](CC(=O)OCc4ccccc4)C(=O)OCc4ccccc4)OC3C1O2 (stereo partly shown) [Compound No. 29] | < 1.56 | 6.25 (≈ 12.8 µM) | 3.13 (≈ 6.41 µM) | > 200 | > 200 | > 200 | > 200 | > 200 | > 200 | > 200 | > 200 | > 200 | 25 (≈ 51.2 µM) | > 200 | > 200 | > 200 | > 200 | > 200 | > 200 | 25 (≈ 51.2 µM) | MIC [18]: > 200 µg/mL; MIC [19]: > 200 µg/mL; MIC (Enterobacter cloacae 963): > 200 µg/mL; MIC [20]: < 1.56 µg/mL; MIC [21]: > 200 µg/mL; MIC [22]: 6.25 µg/mL (≈ 12.8 µM); MIC [23]: > 100 µg/mL; MIC [24]: > 100 µg/mL; MIC [25]: > 100 µg/mL
